Experimental data from US20250145665A1, “MACROCYCLIC PEPTIDES USEFUL AS MODULATORS OF TNF ALPHA” (Bristol-Myers Squibb Company, priority 2023, published 2025).
Starred links: 1 amine or outer side, 2 acyl side, 3 side chain; linkers in the order of their positions; H or OH if unused. Positions of bridges follow the written chain, without caps; N, C: chain ends. Non-standard residues stand in square brackets, D forms with d. Residues, ends and D or L forms follow the SMILES beside them. *: point of attachment. Bip(4'-NHCO-C6H4-4-CH2COOH) = N[C@@H](Cc1ccc(-c2ccc(NC(=O)c3ccc(CC(=O)O)cc3)cc2)cc1)C(=O)O; dArg(Nω-CH2C6H4-3-CH2Gua) = N=C(N)NCc1cccc(CNC(=N)NCCC[C@@H](N)C(=O)O)c1; Bip(4'-NHBz) = N[C@@H](Cc1ccc(-c2ccc(NC(=O)c3ccccc3)cc2)cc1)C(=O)O; Bip(4'-NH) = O=C([C@H](Cc1ccc(-c2ccc(N[*:3])cc2)cc1)N[*:1])[*:2]; X14 = O=C([C@H](Cc1ccc(-c2cccc(C(=O)[*:3])c2)cc1)N[*:1])[*:2]; dArg(ω-(3-HO-benzyl)) = N=C(NCCC[C@@H](N)C(=O)O)NCc1cccc(O)c1; Indazole3carbonyl(1-CH2COOH) = O=C(O)Cn1nc(C(=O)*)c2ccccc21; Bip(4'-COOH) = N[C@@H](Cc1ccc(-c2ccc(C(=O)O)cc2)cc1)C(=O)O; Bip(4'-NHAc) = CC(=O)Nc1ccc(-c2ccc(C[C@H](N)C(=O)O)cc2)cc1; Ala(imidazol-2-yl) = N[C@@H](Cc1ncc[nH]1)C(=O)O; dArg(ω-Bn) = N=C(NCCC[C@@H](N)C(=O)O)NCc1ccccc1; Ala(morpholin-4-yl) = N[C@@H](CN1CCOCC1)C(=O)O; Benzoyl(4-OCH2COOH) = O=C(O)COc1ccc(C(=O)*)cc1; Phe(3-CONH2) = NC(=O)c1cccc(C[C@H](N)C(=O)O)c1; Bip = N[C@@H](Cc1ccc(-c2ccccc2)cc1)C(=O)O; Phe(2-Me) = Cc1ccccc1C[C@H](N)C(=O)O; X15 = O=C(O)c1cccc(Oc2ccccc2N*)c1; 2Pal = N[C@@H](Cc1ccccn1)C(=O)O; Tic = O=C(O)[C@@H]1Cc2ccccc2CN1; 2Thi = N[C@@H](Cc1cccs1)C(=O)O; Cha = N[C@@H](CC1CCCCC1)C(=O)O; Chg = N[C@H](C(=O)O)C1CCCCC1; Tle = CC(C)(C)[C@H](N)C(=O)O; Sar = CNCC(=O)O

What follows are compounds tested against TNFα (Homo sapiens, UniProt P01375) (assay: TNF-Induced HEK-Blue Assay). Settings: not given.
Format: cell-based

Chain of TNFα (P01375 77-233 limits assumed): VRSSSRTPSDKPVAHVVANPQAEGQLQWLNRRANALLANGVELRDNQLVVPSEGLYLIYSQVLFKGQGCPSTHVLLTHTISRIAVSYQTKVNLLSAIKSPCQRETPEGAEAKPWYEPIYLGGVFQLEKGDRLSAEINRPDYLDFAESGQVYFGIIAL

SMILES	IC50
CC(C)C[C@@H]1NC(=O)[C@H](Cc2ccc(O)cc2)NC(=O)[C@H](C(C)C)NC(=O)[C@@H]2CCCN2C(=O)[C@H](C(C)C)NC(=O)[C@@H](CCCNC(=N)NCc2ccccc2)NC(=O)[C@H](CC(=O)O)NC(=O)[C@@H]2CCCN2C(=O)CN(C)C(=O)[C@H](Cc2ccc(-c3ccc(NC(=O)c4nn(CC(=O)O)c5ccccc45)cc3)cc2)NC(=O)[C@H](Cc2ccc(-c3ccc(C(=O)O)cc3)cc2)NC(=O)[C@H](CC2CCCCC2)NC(=O)CSC[C@@H](C(=O)NCC(N)=O)NC1=O [Example 579] ({CH2CO}-[Cha][Bip(4'-COOH)][Bip(4'-NH)](Indazole3carbonyl(1-CH2COOH))[Sar]PD[dArg(ω-Bn)]VPVYLCG-NH2; thioether N-13)	< 50 nM
CC[C@H](C)[C@@H]1NC(=O)[C@@H](CCCNC(=N)N)NC(=O)[C@H](CC(=O)O)NC(=O)[C@H](Cc2cnc[nH]2)NC(=O)CN(C)C(=O)[C@H](Cc2ccc(-c3ccc(NC(=O)c4ccccc4)cc3)cc2)NC(=O)[C@H](Cc2ccc(-c3ccccc3)cc2)NC(=O)[C@H](CC2CCCCC2)NC(=O)CSC[C@@H](C(=O)NCC(N)=O)NC(=O)[C@H](CC(C)C)NC(=O)[C@H](Cc2cnc[nH]2)NC(=O)[C@H](C2CCCCC2)NC(=O)[C@@H]2CCCN2C1=O [Example 490] ({CH2CO}-[Cha][Bip][Bip(4'-NHBz)][Sar]HD[dR]IP[Chg]HLCG-NH2; thioether N-13)	50 to 200 nM

Same assay, conditions: HEK-Blue-CD40L cells, NF-kB-driven secreted alkaline phosphatase reporter; TNFα 0.5 ng/ml; 18 h; read-out: TNF induced HEK-Blue assay IC50 value

SMILES	IC50
CC(=O)Nc1ccc(-c2ccc(C[C@@H]3NC(=O)[C@H](Cc4ccc(-c5ccc(C(=O)O)cc5)cc4)NC(=O)[C@H](CN4CCOCC4)NC(=O)CSC[C@@H](C(=O)NCC(N)=O)NC(=O)[C@H](CC(C)C)NC(=O)[C@H](Cc4cccc(C(N)=O)c4)NC(=O)[C@H](C4CCCCC4)NC(=O)[C@@H]4CCCN4C(=O)[C@H](C(C)C)NC(=O)[C@@H](CCCNC(=N)N)NC(=O)[C@H](CC(=O)O)NC(=O)[C@@H]4CCCN4C(=O)CN(C)C3=O)cc2)cc1 [Example 320] ({CH2CO}-[Ala(morpholin-4-yl)][Bip(4'-COOH)][Bip(4'-NHAc)][Sar]PD[dR]VP[Chg][Phe(3-CONH2)]LCG-NH2; thioether N-13)	200 to 2000 nM
CC(C)C[C@@H]1NC(=O)[C@H](Cc2ccc(O)cc2)NC(=O)[C@H](C(C)C)NC(=O)[C@@H]2CCCN2C(=O)[C@H](C(C)C)NC(=O)[C@H](CCCNC(=N)N)NC(=O)[C@H](CC(N)=O)NC(=O)[C@@H]2CCCN2C(=O)CN(C)C(=O)[C@H](Cc2ccc(-c3ccccc3)cc2)NC(=O)[C@H](Cc2ccc(-c3ccccc3)cc2)NC(=O)[C@H](CN2CCOCC2)NC(=O)CSC[C@@H](C(=O)NCC(N)=O)NC1=O [Example 133] ({CH2CO}-[Ala(morpholin-4-yl)][Bip][Bip][Sar]PNRVPVYLCG-NH2; thioether N-13)	200 to 2000 nM
CC(C)C[C@@H]1NC(=O)[C@H](CCCNC(=N)N)NC(=O)[C@H](C(C)C)NC(=O)[C@@H]2CCCN2C(=O)[C@H](C(C)C)NC(=O)[C@@H](CCCNC(=N)N)NC(=O)[C@H](CC(=O)O)NC(=O)[C@@H]2CCCN2C(=O)CN(C)C(=O)[C@H](Cc2ccc(-c3ccccc3)cc2)NC(=O)[C@H](Cc2ccc(-c3ccccc3)cc2)NC(=O)[C@H](CN2CCOCC2)NC(=O)CSC[C@@H](C(=O)NCC(N)=O)NC1=O [Example 202] ({CH2CO}-[Ala(morpholin-4-yl)][Bip][Bip][Sar]PD[dR]VPVRLCG-NH2; thioether N-13)	200 to 2000 nM
CC(=O)Nc1ccc(-c2ccc(C[C@@H]3NC(=O)[C@H](Cc4ccc(-c5ccccc5)cc4)NC(=O)[C@H](C(C)(C)C)NC(=O)CSC[C@@H](C(=O)NCC(N)=O)NC(=O)[C@H](CC(C)C)NC(=O)[C@H](Cc4cccs4)NC(=O)[C@H](C(C)C)NC(=O)[C@@H]4CCCN4C(=O)[C@H](C(C)C)NC(=O)[C@@H](CCCNC(=N)N)NC(=O)[C@H](CC(=O)O)NC(=O)[C@H](Cc4ccccn4)NC(=O)CN(C)C3=O)cc2)cc1 [Example 605] ({CH2CO}-[Tle][Bip][Bip(4'-NHAc)][Sar][2Pal]D[dR]VPV[2Thi]LCG-NH2; thioether N-13)	200 to 2000 nM

More lines, now with the values ahead:

IC50	SMILES
50 to 200 nM	CC(C)C[C@@H]1NC(=O)[C@H](CCCNC(=N)N)NC(=O)[C@H](C(C)C)NC(=O)[C@@H]2CCCN2C(=O)[C@H](C(C)C)NC(=O)[C@@H](CCCNC(=N)NCc2cccc(CNC(=N)N)c2)NC(=O)[C@H](CC(=O)O)NC(=O)[C@@H]2CCCN2C(=O)CN(C)C(=O)[C@H](Cc2ccc(-c3ccc(NC(=O)c4ccc(CC(=O)O)cc4)cc3)cc2)NC(=O)[C@H](Cc2ccc(-c3ccccc3)cc2)NC(=O)[C@H](CN2CCOCC2)NC(=O)CSC[C@@H](C(=O)NCC(N)=O)NC1=O [Example 571] ({CH2CO}-[Ala(morpholin-4-yl)][Bip][Bip(4'-NHCO-C6H4-4-CH2COOH)][Sar]PD[dArg(Nω-CH2C6H4-3-CH2Gua)]VPVRLCG-NH2; thioether N-13)
< 50 nM	CC(=O)Nc1ccc(-c2ccc(C[C@@H]3NC(=O)[C@H](Cc4ccc(-c5ccc(C(=O)O)cc5)cc4)NC(=O)[C@H](CN4CCOCC4)NC(=O)CSC[C@@H](C(=O)NCC(N)=O)NC(=O)[C@H](CC(C)C)NC(=O)[C@H](Cc4ccccc4C)NC(=O)[C@H](C(C)C)NC(=O)[C@@H]4CCCN4C(=O)[C@H](C(C)C)NC(=O)[C@@H](CCCNC(=N)N)NC(=O)[C@H](CC(=O)O)NC(=O)[C@H](Cc4ccccn4)NC(=O)CN(C)C3=O)cc2)cc1 [Example 199] ({CH2CO}-[Ala(morpholin-4-yl)][Bip(4'-COOH)][Bip(4'-NHAc)][Sar][2Pal]D[dR]VPV[Phe(2-Me)]LCG-NH2; thioether N-13)
50 to 200 nM	CC(C)C[C@@H]1NC(=O)[C@H](CCCNC(=N)N)NC(=O)[C@H](C(C)C)NC(=O)[C@@H]2CCCN2C(=O)[C@H](C(C)C)NC(=O)[C@@H](CCCNC(=N)N)NC(=O)[C@H](CC(=O)O)NC(=O)[C@@H]2CCCN2C(=O)CN(C)C(=O)[C@H](Cc2ccc(-c3cccc(C(=O)Nc4ccccc4Oc4cccc(C(=O)O)c4)c3)cc2)NC(=O)[C@H](Cc2ccc(-c3ccccc3)cc2)NC(=O)[C@H](CN2CCOCC2)NC(=O)CSC[C@@H](C(=O)NCC(N)=O)NC1=O [Example 306] ({CH2CO}-[Ala(morpholin-4-yl)][Bip][X14](X15)[Sar]PD[dR]VPVRLCG-NH2; thioether N-13)
< 50 nM	CC[C@H](C)[C@@H]1NC(=O)[C@@H](CCCNC(=N)NCc2cccc(O)c2)NC(=O)[C@H](CC(=O)O)NC(=O)[C@H](Cc2cnc[nH]2)NC(=O)CN(C)C(=O)[C@H](Cc2ccc(-c3ccc(NC(=O)c4ccc(CC(=O)O)cc4)cc3)cc2)NC(=O)[C@H](Cc2ccc(-c3ccc(C(=O)O)cc3)cc2)NC(=O)[C@H](CC2CCCCC2)NC(=O)CSC[C@@H](C(=O)NCC(N)=O)NC(=O)[C@H](CC(C)C)NC(=O)[C@H](Cc2ncc[nH]2)NC(=O)[C@H](C(C)C)NC(=O)[C@@H]2Cc3ccccc3CN2C1=O [Example 563] ({CH2CO}-[Cha][Bip(4'-COOH)][Bip(4'-NHCO-C6H4-4-CH2COOH)][Sar]HD[dArg(ω-(3-HO-benzyl))]I[Tic]V[Ala(imidazol-2-yl)]LCG-NH2; thioether N-13)
50 to 200 nM	CC(C)C[C@@H]1NC(=O)[C@H](Cc2cnc[nH]2)NC(=O)[C@H](C(C)C)NC(=O)[C@@H]2CCCN2C(=O)[C@H](C(C)C)NC(=O)[C@@H](CCCNC(=N)N)NC(=O)[C@H](CC(=O)O)NC(=O)[C@@H]2CCCN2C(=O)CN(C)C(=O)[C@H](Cc2ccc(-c3ccc(NC(=O)c4ccc(OCC(=O)O)cc4)cc3)cc2)NC(=O)[C@H](Cc2ccc(-c3ccccc3)cc2)NC(=O)[C@H](CC2CCCCC2)NC(=O)CSC[C@@H](C(=O)NCC(N)=O)NC1=O [Example 493] ({CH2CO}-[Cha][Bip][Bip(4'-NH)](Benzoyl(4-OCH2COOH))[Sar]PD[dR]VPVHLCG-NH2; thioether N-13)
